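Following 48 hours of exposure in 96-well plates, responses at five concentrations were used to interpolate endpoints linearly. GI50 marks 50% less growth.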 Active and inactive are the calls of the source. Cut-off read from the data, not from the text of the source: active = GI50 up to about 1.1 µM and inactive = higher.
How the values were obtained:
Assay in all cases: growth of human tumour cells (NCI), 48 h
[1] = system: OVCAR-5
[2] = system: MDA-MB-435
[3] = system: LOX IMVI
[4] = system: SNB-75
[5] = system: K562
[6] = system: SN12C
[7] = system: U-251
[8] = system: BT-549
[9] = system: A549
[10] = system: SF-268
[11] = system: Malme-3M
[12] = system: HL-60
[13] = system: UO-31
[14] = system: PC-3
[15] = system: CAKI-1
[16] = system: NCI-H460
[17] = system: HOP-92
[18] = system: SK-MEL-2
[19] = system: MOLT-4
[20] = system: SW-620

In the case of `COc1ccccc1NC1=NCC(C)S1` (stereo not given), the GI50 [1] was > 100 µM (inactive), the GI50 [2] was > 100 µM (inactive) and the GI50 [3] was > 100 µM (inactive). For the same compound, the GI50 [4] was > 100 µM (inactive), the GI50 [5] was > 100 µM (inactive) and the GI50 [6] was > 100 µM (inactive). The GI50 [7] was > 100 µM (inactive), the GI50 [8] was > 100 µM (inactive) and the GI50 [9] was > 100 µM (inactive). For the same compound, the GI50 [10] was > 100 µM (inactive), the GI50 [11] was > 100 µM (inactive) and the GI50 [12] was > 100 µM (inactive). The GI50 [13] was > 100 µM (inactive), the GI50 [14] was > 100 µM (inactive) and the GI50 [15] was > 100 µM (inactive). For the same compound, the GI50 [16] was > 100 µM (inactive), the GI50 [17] was > 100 µM (inactive) and the GI50 [18] was > 100 µM (inactive). The GI50 [19] was > 100 µM (inactive) and the GI50 [20] was > 100 µM (inactive).
In the case of `CC(=O)OCC1OC(Oc2cc(C)c(O)cc2C/C=C(\C)CC/C=C(\C)C[C@@H](C=C(C)C)OC(C)=O)C(O)C(OC(C)=O)C1OC(C)=O` (stereo not given in full), the GI50 [1] was > 50 µM (inactive), the GI50 [2] was 16.5 µM (inactive) and the GI50 [3] was 13.9 µM (inactive). The GI50 [4] was 13.2 µM (inactive), the GI50 [5] was 11.6 µM (inactive) and the GI50 [6] was 20.2 µM (inactive). The GI50 [7] was 25.5 µM (inactive), the GI50 [8] was 16.8 µM (inactive) and the GI50 [9] was 19.1 µM (inactive). For the same compound, the GI50 [10] was 28.2 µM (inactive), the GI50 [11] was > 50 µM (inactive) and the GI50 [12] was 9.79 µM (inactive). The GI50 [13] was 18 µM (inactive), the GI50 [14] was 18.2 µM (inactive) and the GI50 [15] was > 50 µM (inactive). For the same compound, the GI50 [16] was 14.2 µM (inactive), the GI50 [17] was > 50 µM (inactive) and the GI50 [18] was 19.9 µM (inactive). For the same compound, the GI50 [19] was 8.26 µM (inactive) and the GI50 [20] was 23.6 µM (inactive).
In the case of `Cc1cc2nc(-c3c(F)cccc3F)n(Cc3c(F)cccc3F)c2cc1C`, the GI50 [1] was 16.6 µM (inactive), the GI50 [2] was 14.7 µM (inactive) and the GI50 [3] was 14.3 µM (inactive). For the same compound, the GI50 [4] was 3.37 µM (inactive), the GI50 [5] was 11 µM (inactive) and the GI50 [6] was 16.4 µM (inactive). The GI50 [7] was 11.1 µM (inactive), the GI50 [8] was 13.2 µM (inactive) and the GI50 [9] was 12.1 µM (inactive). The GI50 [10] was 18.8 µM (inactive), the GI50 [11] was 27.9 µM (inactive) and the GI50 [12] was 16.3 µM (inactive). The GI50 [13] was 11.1 µM (inactive), the GI50 [14] was 15.7 µM (inactive) and the GI50 [15] was 15.2 µM (inactive). For the same compound, the GI50 [16] was 13.6 µM (inactive), the GI50 [17] was 12.7 µM (inactive) and the GI50 [18] was 15.8 µM (inactive). The GI50 [19] was 13.1 µM (inactive) and the GI50 [20] was 16.3 µM (inactive).
For `COC(=O)[C@]1(c2cc3ccccc3n2S(=O)(=O)c2ccccc2)CC2CN(C(C)=O)C1CC2=O` (stereo not given in full), the GI50 [1] was 3.3 µM (inactive), the GI50 [2] was 2.34 µM (inactive) and the GI50 [3] was 1.9 µM (inactive). For the same compound, the GI50 [4] was 3.15 µM (inactive), the GI50 [5] was 1.98 µM (inactive) and the GI50 [6] was 2.68 µM (inactive). The GI50 [7] was 1.6 µM (inactive), the GI50 [8] was 2.61 µM (inactive) and the GI50 [9] was 3.05 µM (inactive). For the same compound, the GI50 [10] was 2.34 µM (inactive), the GI50 [11] was 2.77 µM (inactive) and the GI50 [12] was 1.34 µM (inactive). For the same compound, the GI50 [13] was 1.82 µM (inactive), the GI50 [14] was 1.64 µM (inactive) and the GI50 [15] was 2.68 µM (inactive). For the same compound, the GI50 [16] was 3.14 µM (inactive), the GI50 [17] was 5.52 µM (inactive) and the GI50 [18] was 2.77 µM (inactive). For the same compound, the GI50 [19] was 0.855 µM (active) and the GI50 [20] was 1.94 µM (inactive).
`CC1(C)CCCCCCC2OC2CCCCCC(C)(C)C1=O` (stereo not given) was tested, and the GI50 [1] was > 62.1 µM (inactive), the GI50 [2] was 35.5 µM (inactive) and the GI50 [3] was > 67.8 µM (inactive). The GI50 [4] was 28 µM (inactive), the GI50 [5] was 30 µM (inactive) and the GI50 [6] was > 44.8 µM (inactive). The GI50 [7] was 24.3 µM (inactive), the GI50 [8] was 27.5 µM (inactive) and the GI50 [9] was 39.3 µM (inactive). The GI50 [10] was 50.2 µM (inactive), the GI50 [11] was > 53.8 µM (inactive) and the GI50 [12] was 22.4 µM (inactive). For the same compound, the GI50 [13] was 25.5 µM (inactive), the GI50 [14] was 35.1 µM (inactive) and the GI50 [15] was 20.5 µM (inactive). The GI50 [16] was 36.1 µM (inactive), the GI50 [17] was 27 µM (inactive) and the GI50 [18] was 31.8 µM (inactive). For the same compound, the GI50 [19] was 24 µM (inactive) and the GI50 [20] was 52.4 µM (inactive).
For `Cn1c(=O)n(-c2c3ccccc3c(Cl)c3ccccc23)n(C(C)(C)C)c1=O`, the GI50 [1] was > 100 µM (inactive), the GI50 [2] was > 100 µM (inactive) and the GI50 [3] was > 100 µM (inactive). The GI50 [4] was 12.1 µM (inactive), the GI50 [5] was > 100 µM (inactive) and the GI50 [6] was > 100 µM (inactive). For the same compound, the GI50 [7] was > 100 µM (inactive), the GI50 [8] was > 100 µM (inactive) and the GI50 [9] was > 100 µM (inactive). For the same compound, the GI50 [10] was 59.8 µM (inactive), the GI50 [11] was > 100 µM (inactive) and the GI50 [12] was > 100 µM (inactive). For the same compound, the GI50 [13] was > 100 µM (inactive), the GI50 [14] was > 100 µM (inactive) and the GI50 [15] was > 100 µM (inactive). The GI50 [16] was > 100 µM (inactive), the GI50 [17] was 57.7 µM (inactive) and the GI50 [18] was > 100 µM (inactive). The GI50 [19] was > 100 µM (inactive) and the GI50 [20] was > 100 µM (inactive).
For `CC(C)=CCC[C@@H](C)C1=C(O)C(=O)C(C)=C(Nc2ccccc2)C1=O`, the GI50 [1] was 52.4 µM (inactive), the GI50 [2] was 27.7 µM (inactive) and the GI50 [3] was 20.6 µM (inactive). For the same compound, the GI50 [4] was 31.5 µM (inactive), the GI50 [5] was 13.2 µM (inactive) and the GI50 [6] was 23.9 µM (inactive). For the same compound, the GI50 [7] was 12.5 µM (inactive), the GI50 [8] was 24.7 µM (inactive) and the GI50 [9] was 16.9 µM (inactive). For the same compound, the GI50 [10] was 19.8 µM (inactive), the GI50 [11] was 17.8 µM (inactive) and the GI50 [12] was 2.98 µM (inactive). For the same compound, the GI50 [13] was 14.5 µM (inactive), the GI50 [14] was 23.9 µM (inactive) and the GI50 [15] was 15.1 µM (inactive). The GI50 [16] was 13.3 µM (inactive), the GI50 [17] was 23.5 µM (inactive) and the GI50 [18] was 20.2 µM (inactive). For the same compound, the GI50 [19] was 6.82 µM (inactive) and the GI50 [20] was 22.8 µM (inactive).

— ChEMBL document CHEMBL1201862, “PubChem BioAssay data set” (2004)
